Measured values from ChEMBL document CHEMBL5726547, “Substituted quinazolines as receptor-type kinase inhibitors” (2017).

target: Vascular endothelial growth factor receptor 1 (Homo sapiens, UniProt P17948); assay: AlphaScreen Assay: In AlphaScreen, when the donor and acceptor beads are close in proximity, a series of photochemical events will give rise to a fluorescent signal upon light activation. Here we use biotinylated poly-(Glu, Tyr) 4:1 as the kinase substrate, streptavidin-coated donor beads and anti-phosphortyrosine antibody PY100-coated acceptor beads. Upon phosphorylation, the peptide substrate …
Sequence (P17948 whole entry): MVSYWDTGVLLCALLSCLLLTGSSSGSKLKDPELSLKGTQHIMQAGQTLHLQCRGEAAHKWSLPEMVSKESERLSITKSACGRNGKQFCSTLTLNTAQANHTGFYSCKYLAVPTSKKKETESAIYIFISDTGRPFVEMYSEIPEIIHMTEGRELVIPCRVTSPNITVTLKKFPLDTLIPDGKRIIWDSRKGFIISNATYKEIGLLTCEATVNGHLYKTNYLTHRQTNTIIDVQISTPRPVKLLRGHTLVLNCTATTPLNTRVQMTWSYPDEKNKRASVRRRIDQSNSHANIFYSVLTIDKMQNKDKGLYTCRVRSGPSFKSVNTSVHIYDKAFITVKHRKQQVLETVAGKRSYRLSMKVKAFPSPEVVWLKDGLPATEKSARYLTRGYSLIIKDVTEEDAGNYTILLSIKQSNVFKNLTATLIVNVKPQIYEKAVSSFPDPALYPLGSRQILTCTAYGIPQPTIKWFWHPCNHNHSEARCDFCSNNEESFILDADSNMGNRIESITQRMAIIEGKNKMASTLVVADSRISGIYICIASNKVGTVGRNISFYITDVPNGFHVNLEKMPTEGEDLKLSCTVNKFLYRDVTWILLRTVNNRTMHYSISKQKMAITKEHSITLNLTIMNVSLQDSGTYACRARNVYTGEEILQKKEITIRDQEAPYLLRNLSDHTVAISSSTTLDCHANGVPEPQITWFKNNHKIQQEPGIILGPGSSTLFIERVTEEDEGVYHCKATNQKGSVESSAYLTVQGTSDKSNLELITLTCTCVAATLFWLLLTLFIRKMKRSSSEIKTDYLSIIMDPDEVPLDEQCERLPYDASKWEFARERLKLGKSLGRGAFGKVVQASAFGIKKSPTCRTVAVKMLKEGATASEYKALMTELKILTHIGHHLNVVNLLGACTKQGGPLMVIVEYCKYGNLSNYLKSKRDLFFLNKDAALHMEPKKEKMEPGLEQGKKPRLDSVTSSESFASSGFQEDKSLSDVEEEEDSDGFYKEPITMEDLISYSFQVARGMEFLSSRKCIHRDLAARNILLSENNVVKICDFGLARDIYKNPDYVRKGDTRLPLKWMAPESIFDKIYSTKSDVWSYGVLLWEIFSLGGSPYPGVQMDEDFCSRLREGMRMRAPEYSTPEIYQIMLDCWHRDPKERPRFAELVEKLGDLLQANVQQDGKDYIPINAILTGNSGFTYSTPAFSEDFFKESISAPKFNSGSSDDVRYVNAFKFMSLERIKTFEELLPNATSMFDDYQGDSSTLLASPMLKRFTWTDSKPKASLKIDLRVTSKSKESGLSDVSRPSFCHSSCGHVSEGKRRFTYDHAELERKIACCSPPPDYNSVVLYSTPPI

Q: Which IC50 does the source give for COc1cc2c(Nc3cc(Cl)c(Cl)cc3F)ncnc2cc1OC[C@@H]1CN2CCOCC2CO1 (stereo not given in full) here?
A: 50 to 1000 nM

Q: Which IC50 does the source give for COc1cc2c(Nc3ccc(F)c(Cl)c3F)ncnc2cc1O[C@H]1CO[C@H]2[C@@H]1OC[C@@H]2OC here?
A: 1000 to 20000 nM

Q: How did the IC50 turn out when COc1cc2c(Nc3cc(Cl)c(Cl)cc3F)ncnc2cc1OC[C@H]1CN2CCOCC2CO1 (stereo not given in full) was run?
A: 50 to 1000 nM

Q: For COc1cc2c(Nc3ccc(Br)c(Cl)c3F)ncnc2cc1OC[C@H]1CN2CCOCC2CO1 (stereo not given in full), which IC50 is on record?
A: 50 to 1000 nM

Q: With COc1cc2c(Nc3ccc(Cl)c(Cl)c3F)ncnc2cc1OC[C@H]1C[C@@H]2CN(C)C[C@@H]2C1 as the compound, how does the IC50 read?
A: 50 to 1000 nM

Q: For COc1cc2c(Nc3cc(Cl)c(Br)cc3F)ncnc2cc1OC[C@@H]1CN2CCOCC2CO1 (stereo not given in full), which IC50 is on record?
A: 50 to 1000 nM

Q: For COc1cc2c(Nc3ccc(F)c(Cl)c3F)ncnc2cc1OC[C@H]1CN2CCOCC2CO1 (stereo not given in full), which IC50 is on record?
A: 50 to 1000 nM

Q: Which IC50 does the source give for COc1cc2c(Nc3ccc(F)c(Cl)c3F)ncnc2cc1OC[C@@H]1CN2CCOCC2CO1 (stereo not given in full) here?
A: 50 to 1000 nM

Q: COc1cc2c(Nc3cc(Cl)c(Br)cc3F)ncnc2cc1OC[C@H]1CN2CCOCC2CO1 (stereo not given in full) was tested. Which IC50 did it give?
A: 50 to 1000 nM

Q: COc1cc2c(Nc3ccc(Cl)c(Cl)c3F)ncnc2cc1OC[C@H]1CN2CCOCC2CO1 (stereo not given in full) was tested. Which IC50 did it give?
A: 50 to 1000 nM
